“Also recorded” adds a separate entry of the source. Where two headings read alike, the source gives them in different places.

Data on 11 compounds can be found in article PMC3875304 (Journal of medicinal chemistry, 2009).

Assay [1] has as its target T1, M2 (Homo sapiens, UniProt P08172).
T1 sequence (P08172 1-466): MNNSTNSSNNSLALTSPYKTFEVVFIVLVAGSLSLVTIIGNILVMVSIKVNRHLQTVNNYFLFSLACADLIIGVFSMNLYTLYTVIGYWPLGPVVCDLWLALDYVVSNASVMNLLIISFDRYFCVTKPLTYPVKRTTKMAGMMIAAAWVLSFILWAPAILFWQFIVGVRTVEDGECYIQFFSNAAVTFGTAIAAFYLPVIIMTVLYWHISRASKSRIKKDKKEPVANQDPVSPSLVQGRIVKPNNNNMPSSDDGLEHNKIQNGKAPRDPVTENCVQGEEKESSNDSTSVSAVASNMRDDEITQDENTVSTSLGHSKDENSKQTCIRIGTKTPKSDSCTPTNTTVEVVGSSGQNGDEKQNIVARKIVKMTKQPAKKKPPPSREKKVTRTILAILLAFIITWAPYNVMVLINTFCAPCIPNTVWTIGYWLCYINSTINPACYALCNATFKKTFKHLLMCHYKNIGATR
It is filed as cell-based. The following applies: fixed ACh ~EC20, Ca2+ assay, Gqi5 cotransfected, up to 30 µM.

Assay [2] has as its target T2, M4 (Homo sapiens, UniProt P08173).
T2 sequence (P08173 1-479): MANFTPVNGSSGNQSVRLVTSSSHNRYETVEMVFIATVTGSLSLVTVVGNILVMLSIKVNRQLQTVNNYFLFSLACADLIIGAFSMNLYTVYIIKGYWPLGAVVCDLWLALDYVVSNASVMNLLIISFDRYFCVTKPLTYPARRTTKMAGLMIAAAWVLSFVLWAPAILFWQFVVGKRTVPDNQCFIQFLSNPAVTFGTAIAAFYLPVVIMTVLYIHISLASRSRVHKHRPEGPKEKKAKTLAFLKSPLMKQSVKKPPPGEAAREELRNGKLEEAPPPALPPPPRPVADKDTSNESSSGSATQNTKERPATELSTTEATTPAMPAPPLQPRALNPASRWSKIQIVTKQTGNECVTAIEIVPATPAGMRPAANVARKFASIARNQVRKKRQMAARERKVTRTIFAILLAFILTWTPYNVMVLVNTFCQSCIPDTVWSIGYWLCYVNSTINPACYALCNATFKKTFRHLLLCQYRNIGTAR
It is filed as cell-based. The following applies: for M4 potentiator activity: fixed ACh ~EC20, Ca2+ assay, Gqi5 cotransfected, up to 30 µM.

Assay [3] addresses T3, M1 (Homo sapiens, UniProt P11229).
T3 sequence (P11229 1-460): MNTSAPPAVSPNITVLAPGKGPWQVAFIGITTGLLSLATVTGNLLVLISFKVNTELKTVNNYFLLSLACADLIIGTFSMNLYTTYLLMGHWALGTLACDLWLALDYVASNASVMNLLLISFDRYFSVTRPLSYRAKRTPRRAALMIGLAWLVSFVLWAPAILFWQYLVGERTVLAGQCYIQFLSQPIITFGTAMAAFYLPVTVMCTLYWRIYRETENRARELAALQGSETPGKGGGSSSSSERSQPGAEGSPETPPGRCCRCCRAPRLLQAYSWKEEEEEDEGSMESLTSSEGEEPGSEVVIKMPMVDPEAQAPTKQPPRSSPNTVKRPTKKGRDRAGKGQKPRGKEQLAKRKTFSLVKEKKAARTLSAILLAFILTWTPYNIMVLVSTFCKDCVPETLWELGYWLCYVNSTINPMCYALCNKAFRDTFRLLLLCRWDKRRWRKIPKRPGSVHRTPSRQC
The following applies: fixed 30 µM compound, at M1; cited from earlier work.

The target of assay [4] is T3, M1. The assay can be described thus: Ca2+ mobilization potentiation of ACh ~EC20, M1 CHO cells. It is filed as cell-based. (In general: Calcium assays in cells follow changes in intracellular calcium, usually with a dye or a luminescent sensor.)
Assay [5] addresses T4, M5 (Homo sapiens, UniProt P08912).
T4 sequence (P08912 1-532): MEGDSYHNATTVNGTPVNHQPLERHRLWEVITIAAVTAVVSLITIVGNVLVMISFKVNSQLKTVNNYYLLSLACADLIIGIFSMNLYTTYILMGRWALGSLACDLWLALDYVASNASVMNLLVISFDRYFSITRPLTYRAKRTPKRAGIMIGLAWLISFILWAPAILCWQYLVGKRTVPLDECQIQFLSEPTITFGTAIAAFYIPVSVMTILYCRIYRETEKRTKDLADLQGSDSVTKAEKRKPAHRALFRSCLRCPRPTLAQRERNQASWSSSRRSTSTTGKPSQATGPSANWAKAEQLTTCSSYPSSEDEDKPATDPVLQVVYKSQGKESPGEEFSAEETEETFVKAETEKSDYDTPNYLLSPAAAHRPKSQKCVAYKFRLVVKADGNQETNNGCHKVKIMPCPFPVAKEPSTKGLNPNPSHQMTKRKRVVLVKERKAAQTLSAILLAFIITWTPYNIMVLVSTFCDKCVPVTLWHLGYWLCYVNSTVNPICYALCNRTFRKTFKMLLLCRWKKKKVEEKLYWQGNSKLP
The assay can be described thus: Ca2+ mobilization assay, M5 CHO cells. It is filed as cell-based.

The target of assay [6] is T4, M5. The assay can be described thus: [3H]-NMS competition binding, M5-CHO membrane preparations. As to conditions: up to 30 µM, M5-CHO membranes.

With `O=C1C(=O)N(Cc2ccc(Br)cc2)c2ccccc21` [compound 113], in assay [1], the M2 potentiator activity entry is “lacked potentiator effects; also recorded: inactive”. Further, the M4 potentiator activity result in assay [2] was “lacked potentiator effects; also recorded: inactive”. In assay [3], the “leftward shift of full ACh CRC” value is on record as 14 fold.
As to `COc1cccc(CN2C(=O)C(=O)c3cc(OC(F)(F)F)ccc32)c1` [compound 41], the EC50 (as a rule, the concentration needed to bring the measured effect to its halfway point) in assay [4] was more than 30 µM.
Regarding `O=C1C(=O)N(Cc2ccc(OC(F)(F)F)cc2)c2ccc(OC(F)(F)F)cc21` [compound 110], the EC50 in assay [4] was more than 30 µM.
Same read-out and setting: the figure for `COc1cccc(CN2C(=O)C(=O)c3c(Cl)ccc(Cl)c32)c1` [compound 38] is more than 30 µM; for `O=C1C(=O)N(Cc2ccccc2Cl)c2ccc(OC(F)(F)F)cc21` [compound 64] it is more than 30 µM.
In the case of `O=C1C(=O)N(Cc2ccc(C(F)(F)F)cc2)c2c(Cl)cccc21` [compound 56], the M2 potentiator activity entry in assay [1] is reported as “modest potentiation”. Besides, in assay [2], the half-maximal effective concentration (EC50) was more than 10 µM and the M4 potentiator activity result is “modest potentiation”.
For `COc1ccc(CN2C(=O)C(=O)c3cc(OC(F)(F)F)ccc32)cc1` [compound 42], the 50% effective concentration (EC50) in assay [4] was more than 30 µM. The M2 potentiator activity result is “lack of potentiation activity; also recorded: inactive” in assay [1] and “no M2 or M4 potentiator activity” in assay [1] (listed as VU0238429). The figures for the M4 potentiator activity result in assay [2] and in assay [2] (listed as VU0238429) were “lack of potentiation activity; also recorded: inactive” and “no M2 or M4 potentiator activity”, respectively. In assay [5] (compound alone, absence of ACh, up to 30 µM, Ca2+ assay), the “intrinsic agonist activity at M5” value is “absence of intrinsic agonist activity; also recorded: lacked intrinsic agonist activity”. Also, the “selectivity for M5 versus M1 and M3” value in assay [5] (from EC50 in Ca2+ assays) is more than 30 fold. Moreover, the “selectivity for M5 versus the other four subtypes” value in assay [5] (from EC50 in Ca2+ assays) is given as more than 30 ×. In assay [6], the “competition with [3H]-NMS binding to M5” value was “lack of competition; also recorded: lacked competition”.
In the case of `O=C1C(=O)N(Cc2ccc(Br)cc2F)c2ccc(OC(F)(F)F)cc21` [compound 112], the 50% effective concentration (EC50) in assay [4] was more than 30 µM.
Take `Cc1ccccc1CN1C(=O)C(=O)c2cc(OC(F)(F)F)ccc21` [compound 111]: in assay [4], the 50% effective concentration (EC50) is more than 30 µM.
Take `O=C1C(=O)N(Cc2ccccc2C(F)(F)F)c2c(F)cccc21` [compound 49]: the EC50 in assay [4] is more than 30 µM.
Same read-out and setting: the figure for `COc1ccc(CN2C(=O)C(=O)c3ccccc32)cc1` [compound 22] is more than 10 µM.
